Results as given in patent US20040180938A1, “Novel butadiene derivatives, process for preparation of the same and intermediates for the synthesis thereof” (priority 2001, published 2004).

melting point: 232 °C (dec.)
SMILES: COC(=O)C(=C(/C)c1ccc(C(=O)O)cc1)/C(=C\c1cccc(OC)c1)C(=O)Nc1ccnc(C)c1.Cl
